# Test results published in paper PMC7357171 (Toxicological Sciences, 2020).
# Marks after values point to notes of the source that are not given here.
# How the values were obtained:
# mES reporter cell lines = assay: ToxTracker genotoxicity assay; format: cell-based
# MAO-A [1] = molecular target: T1, MAO-A (Rattus norvegicus, UniProt P21396); assay: SafetyScreen44 MAO-A; format: binding; conditions: coumarin 10 µM
# T1 sequence (P21396 1-526): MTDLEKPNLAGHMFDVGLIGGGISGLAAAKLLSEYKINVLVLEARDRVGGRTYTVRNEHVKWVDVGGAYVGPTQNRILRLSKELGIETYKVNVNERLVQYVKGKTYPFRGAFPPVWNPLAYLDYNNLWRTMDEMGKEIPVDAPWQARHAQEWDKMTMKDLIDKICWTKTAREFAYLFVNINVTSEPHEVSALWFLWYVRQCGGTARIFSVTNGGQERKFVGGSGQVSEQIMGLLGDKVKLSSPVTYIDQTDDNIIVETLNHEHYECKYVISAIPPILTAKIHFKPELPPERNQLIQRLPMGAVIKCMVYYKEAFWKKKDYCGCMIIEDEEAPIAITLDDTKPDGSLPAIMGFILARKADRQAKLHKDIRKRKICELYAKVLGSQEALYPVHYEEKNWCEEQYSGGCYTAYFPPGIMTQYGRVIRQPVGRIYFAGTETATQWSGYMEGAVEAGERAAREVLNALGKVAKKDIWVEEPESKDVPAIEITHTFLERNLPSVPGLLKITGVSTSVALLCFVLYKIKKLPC
# [2] = system: LPS-stimulated PBMC and endothelial cell coculture system; assay: BioMap Diversity 8 Panel, LPS system; format: cell-based, human; conditions: up to 500 µM
# [3] = system: SAg-stimulated PBMC and endothelial cell coculture system; assay: BioMap Diversity 8 Panel, SAg system; format: cell-based, human; conditions: up to 500 µM
# HepaRG 3D [4] = assay: In vitro cell stress panel in HepaRG 3D spheroids; format: cell-based, human
# HepaRG 3D [5] = assay: High-throughput transcriptomics; format: cell-based, human
# [6] = Human cryopreserved hepatocyte stability assay; format: in vitro ADME; conditions: cryopreserved hepatocytes
# [7] = Determination of the margin of safety; conditions: for Preliminary MoS (range): PoDs of the in vitro bioactivity characterization step
# [8] = molecular target: carbonic anhydrase type I; conditions: read-out: Ki used as PoD for the MoS calculation; ref PubChem; cited from earlier work
# [9] = molecular target: carbonic anhydrase type IV; conditions: read-out: Ki used as PoD for the MoS calculation; ref PubChem; cited from earlier work
# MAO-A [10] = molecular target: T1, MAO-A; conditions: ref Gnerre et al., 2000; cited from earlier work
# MAO-B = conditions: ref Gnerre et al., 2000; cited from earlier work
# [11] = system: 8 cell-based human primary cell cultures (or cocultures); conditions: ref ToxCast, CompTox Chemicals Dashboard; cited from earlier work
# [12] = assessment factor of 100 on the animal NOAEL; ref EFSA, 2008; cited from earlier work
# CYP2A6 = molecular target: T2, CYP2A6 (Homo sapiens, UniProt P11509); assay: Compound stability in expressed human CYP2A6; conditions: heterologously expressed (recombinant) CYP2A6
# T2 sequence (P11509 1-494): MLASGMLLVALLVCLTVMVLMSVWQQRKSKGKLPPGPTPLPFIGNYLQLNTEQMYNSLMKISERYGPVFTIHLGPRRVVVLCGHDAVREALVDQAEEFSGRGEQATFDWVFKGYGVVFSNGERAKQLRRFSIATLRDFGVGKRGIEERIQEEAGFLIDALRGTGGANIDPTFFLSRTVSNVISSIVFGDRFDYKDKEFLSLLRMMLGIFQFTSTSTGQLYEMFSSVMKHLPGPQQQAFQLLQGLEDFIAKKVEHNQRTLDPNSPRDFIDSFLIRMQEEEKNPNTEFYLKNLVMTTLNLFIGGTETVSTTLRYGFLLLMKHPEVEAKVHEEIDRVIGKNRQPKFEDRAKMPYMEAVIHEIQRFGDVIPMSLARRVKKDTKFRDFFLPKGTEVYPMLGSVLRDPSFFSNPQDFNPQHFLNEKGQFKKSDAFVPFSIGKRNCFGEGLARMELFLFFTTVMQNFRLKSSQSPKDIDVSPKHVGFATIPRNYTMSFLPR
# MCF7 = assay: High-throughput transcriptomics
# HepaRG 2D = assay: High-throughput transcriptomics
structure (smiles),measurement,setting,value
O=c1ccc2ccccc2o1 [Coumarin],Blvrb-GFP oxidative stress marker,"mES reporter cell lines; presence of S9, 24 h",activated
same,Btg2-GFP reporter (p53 response) activation,"mES reporter cell lines; presence of S9, 24 h",weak activation
same,Srxn1-GFP oxidative stress marker,"mES reporter cell lines; presence of S9, 24 h",activated
same,cytotoxicity,"mES reporter cell lines; up to 1000 µM, absence or presence of S9",No significant cytotoxicity
same,Srxn1-GFP oxidative stress reporter,"mES reporter cell lines; without metabolic activation, 24 h",induced
same,"Mean % inhibition, Specific binding",MAO-A [1],22%
same,biomarkers affected,[2],No biomarkers were affected
same,biomarkers affected,[3],No biomarkers were affected
same,biomarker changes at 24 h,HepaRG 3D [4],no changes
same,summarized PoDs after 24 h exposure (range),HepaRG 3D [5],41 to 55 µM
same,"PoDT, BMD of Reactome pathway with lowest BMD that meets significance threshold criteria",HepaRG 3D [5]; 24 h,41 µM
same,number of genes in gene-level tests,HepaRG 3D [5]; 24 h,(9 genes)
same,"PoDT, Mean BMD of genes between 25th and 75th percentile","HepaRG 3D [5]; 24 h, fewer than 20 genes (*)",46* µM
same,"PoDT, 20 pathways with the lowest BMD Reactome","HepaRG 3D [5]; 24 h, fewer than 20 pathways (*)",46* µM
same,number of genes in gene-level tests,"HepaRG 3D [5]; 24 h, listed as coumarin",9 genes
same,number of pathways in pathway-level tests,"HepaRG 3D [5]; 24 h, listed as coumarin",2 pathways
same,half-life,[6],13 min
same,Body Lotion Min. 5th percentile MoS,"[7]; PubChem, Carbonic Anhydrase Type I",158
same,Preliminary MoS (range),[7]; body lotion,158-22048
same,"MoS (the 5th percentile), all PoDs",[7]; face cream and body lotion,higher than 100
same,Preliminary MoS (range),[7]; face cream,706-96738
same,"PoDT, 20 pathways with the lowest BMD Reactome","HepG2; HepG2, 24 h",44 µM
same,"PoDT, BMD of Reactome pathway with lowest BMD that meets significance threshold criteria","HepG2; HepG2, 24 h",31 µM
same,"PoDT, Mean BMD of genes between 25th and 75th percentile","HepG2; HepG2, 24 h",17 µM
same,number of genes in gene-level tests,"HepG2; HepG2, 24 h",(1570 genes)
same,number of pathways in pathway-level tests,"HepG2; HepG2, 24 h",(308 pathways)
same,cytotoxicity (> 20%),"HepG2; HepG2, up to the maximum tested concentration, data not shown",No significant cytotoxicity
same,Ki,[8],3 µM
same,Ki,[9],62.3 µM
same,IC50,MAO-A [10],12 µM
same,IC50,MAO-B,40.7 µM
same,concentration-response in BioMap data generated during the ToxCast program,[11],No concentration-response
same,tolerable daily intake (TDI) for coumarin in foods,[12],0 to 0.1 mg/kg/day
same,half-life at 1 µM,CYP2A6,< 5 min
same,"PoDT, Mean BMD of genes between 25th and 75th percentile","MCF7; MCF7, 24 h",1 µM
same,cytotoxicity (> 20%),"MCF7; MCF7, up to the maximum tested concentration, data not shown",No significant cytotoxicity
same,cytotoxicity (> 20%),"HepaRG 2D; 2D HepaRG, up to the maximum tested concentration, data not shown",No significant cytotoxicity
same,"PoDT, Mean BMD of genes between 25th and 75th percentile","HepaRG 2D; HepaRG 2D, 24 h",59 µM
same,number of pathways in pathway-level tests,"HepaRG 2D; HepaRG 2D, 24 h",17 pathways
